Several values for one entry are separate records, joined by “and”; a condition that tells them apart may be missing. Identical values can stand only once. Values belong to the molecule of their own block, whether it stands above or below them.
Key:
Sirt1 = target: T1, Sirt1 (Homo sapiens, UniProt Q96EB6); experiment: fluorescence-based deacetylase assay with Z-Lys(acetyl)-AMC (ZMAL) substrate; format: biochemical; conditions: for Sirt1 inhibition: n.i. = no inhibition detected, tested at 100 µM, 50 µM and 10 µM
T1 construct: Expression and purification of Sirt1_133-747; made in house
T1 sequence (Q96EB6 133-747): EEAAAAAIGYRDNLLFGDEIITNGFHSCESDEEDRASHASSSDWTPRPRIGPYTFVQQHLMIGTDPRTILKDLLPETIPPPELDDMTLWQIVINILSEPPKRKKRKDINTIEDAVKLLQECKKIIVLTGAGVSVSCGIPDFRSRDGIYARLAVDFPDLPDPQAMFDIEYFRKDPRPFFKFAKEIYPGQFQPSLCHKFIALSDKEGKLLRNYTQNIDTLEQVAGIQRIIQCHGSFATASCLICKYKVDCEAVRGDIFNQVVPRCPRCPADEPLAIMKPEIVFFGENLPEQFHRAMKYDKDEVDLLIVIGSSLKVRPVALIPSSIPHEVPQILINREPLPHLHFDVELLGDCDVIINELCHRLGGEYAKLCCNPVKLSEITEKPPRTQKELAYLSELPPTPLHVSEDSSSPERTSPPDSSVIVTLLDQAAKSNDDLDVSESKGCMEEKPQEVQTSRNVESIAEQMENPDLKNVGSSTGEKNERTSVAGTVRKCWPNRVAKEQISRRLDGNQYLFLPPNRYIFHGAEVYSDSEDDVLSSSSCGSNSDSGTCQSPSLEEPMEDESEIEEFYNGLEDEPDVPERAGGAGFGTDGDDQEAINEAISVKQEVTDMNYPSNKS
Method: (§1) The influence on deacetylase activity of three human sirtuin isoforms (Sirt1–3) was determined in a fluorescence-based assay, using Z-Lys(acetyl)-AMC (ZMAL) as a substrate. Compared to the lead structure 2a, all compounds except 2e–h show increased inhibitory activity against Sirt2 (Table 1). […] Moreover, a slight increase in selectivity for Sirt2 and Sirt3 over Sirt1 could be observed for 2c, 4a and 4b. […] Though not photoswitchable, compounds 4a and 4b were synthesized to test the influence of a rigid conformation around the C=C double bond on sirtuin inhibition. […] A recently developed fluorescence polarization (FP)-based assay enables mapping of ligand binding to this specific binding site. For 2a an interaction with the selectivity pocket was already implied in the same work. Additionally performed docking studies proposed a binding mode in which 2a mimics the nicotinamide residue of NAD^+, whereas aromatic amino acid residues of the selectivity pocket stabilize the dimethylphenol ring. As photoisomerization in stilbenes and azo dyes is accompanied by a perpendicular twist of the phenyl ring towards the former molecular plane, we assumed that this conformational change should provoke a differential binding situation at least for the dimethylphenol residue in 2a. Unfortunately, binding of 2b and c could not be localised in the vicinity of the selectivity pocket of Sirt2, so that the binding pose remains unclear.
(§2) The photoswitchable diazeno compound 11 was subjected to biological evaluation to test the effect of photoisomerization on the inhibitory activity. The enzyme assay mixture containing 11 was exposed to 5 minutes of 365 nm radiation and compared with the results of a non-irradiated measurement. […] Unfortunately, 365 nm radiation turned out to have only minor effects on the IC50 values of 11 (Table 3).
(§3) Cloning, expression and purification of recombinant proteins: Expression and purification of Sirt1_133-747, Sirt2_56−356, and Sirt3_118−395 was carried out as described previously. Identity and purity were verified by SDS-PAGE [65]. Protein concentration was determined by the Bradford assay.
(§4) Bioassay: The inhibitory effect of compounds 2a–h, 4a/b, 8a and 11 on Sirt1–3 was detected via a previously reported fluorescence based assay. The synthetic substrate Z-Lys(acetyl)-AMC (ZMAL) is deacetylated by sirtuins, followed by tryptic digestion and thereby release of […], leading to a fluorescent readout. Inhibition was determined by comparing percentage substrate conversion to a DMSO control after subtraction of the blank fluorescence signal. All compounds were tested at 100 µM, 50 µM and 10 µM, respectively. […] IC50 values were calculated with OriginPro 9.0 G using a non-linear regression to fit the dose response curve. An enzyme-free blank control and a 100% conversion control using AMC instead of ZMAL were measured as well. Inhibition measurements were performed in biological duplicates for all compounds.

Sirt2 = target: T2, Sirt2 (Homo sapiens, UniProt Q8IXJ6); experiment: as above; format: biochemical; conditions: for IC50: mean ± SD of duplicate experiments, read-out: Sirt2 inhibition IC50; for inhibition at 10 µM / inhibition at 50 µM: percent inhibition relative to controls
T2 construct: Sirt2_56−356; made in house
T2 sequence (Q8IXJ6 56-356): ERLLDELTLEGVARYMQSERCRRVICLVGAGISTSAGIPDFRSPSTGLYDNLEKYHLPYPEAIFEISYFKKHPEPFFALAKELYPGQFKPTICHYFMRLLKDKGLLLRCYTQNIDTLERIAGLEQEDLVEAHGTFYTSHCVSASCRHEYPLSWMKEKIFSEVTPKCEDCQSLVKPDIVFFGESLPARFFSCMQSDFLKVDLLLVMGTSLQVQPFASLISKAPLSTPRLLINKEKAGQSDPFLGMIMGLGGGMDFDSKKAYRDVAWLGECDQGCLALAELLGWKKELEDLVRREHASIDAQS
Method: as §1, §2, §3, §4

Sirt3 = target: T3, Sirt3 (Homo sapiens, UniProt Q9NTG7); experiment: as above; format: biochemical; conditions: for IC50: mean ± SD of duplicate experiments, read-out: Sirt3 inhibition IC50; for inhibition at 50 µM / inhibition at 10 µM: percent inhibition relative to controls; for Sirt3 inhibition: n.i. = no inhibition detected, tested at 100 µM, 50 µM and 10 µM
T3 construct: Sirt3_118−395; made in house
T3 sequence (Q9NTG7 118-395): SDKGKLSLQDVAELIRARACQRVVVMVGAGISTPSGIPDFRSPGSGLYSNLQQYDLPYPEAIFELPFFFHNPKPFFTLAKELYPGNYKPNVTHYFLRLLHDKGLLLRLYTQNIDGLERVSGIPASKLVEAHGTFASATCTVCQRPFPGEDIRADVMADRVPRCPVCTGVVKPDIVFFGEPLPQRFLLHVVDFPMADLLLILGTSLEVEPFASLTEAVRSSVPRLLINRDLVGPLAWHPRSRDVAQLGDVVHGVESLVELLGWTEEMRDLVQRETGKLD
Method: as §1, §2, §3, §4

[1] = E→Z photoisomerization of azastilbenes under 254 nm irradiation, proton NMR analysis; format: physicochemical; conditions: after 100 minutes of 254 nm irradiation, 10 mM in methanol
Method: Photochemistry of compounds 2b and 2f was investigated via UV–vis spectroscopy, LC–HRMS and NMR spectroscopy. Compound 2b represents the core structure of the azastilbenes investigated, whereas in 2f the influence of ortho methylation was intended to be examined. For UV–vis spectroscopy 50 µM solutions in 5% DMSO (v/v) in enzyme assay buffer were used, as this reflects the enzyme assay conditions. However, for LC-HRMS and NMR analysis, a higher concentration of 10 mM in methanol was necessary to receive reliable chromatograms and spectra.
LC–HRMS analysis provided deeper insights and clarified the differential behaviour observed in the UV–vis spectra of 2b and 2f after UV irradiation. As anticipated, UV irradiation lead to E→Z isomerization of the C=C double bond in both compounds. […] Unfortunately, the amount of photoisomerization was only moderate, since after 100 minutes of continuous irradiation still substantial amounts of the (E)-isomers were present in the mixtures (Figure 3). Proton NMR analysis implied photostationary states comprising a relative percentage of 45% (Z)-2b and 57% (Z)-2f, respectively after 100 minutes of 254 nm irradiation. The NMR spectra can be found in Supporting Information File 1.
Photochemistry: All photoisomerization experiments were conducted under ruby light of 630 nm. […]

[2] = percent inhibition relative to controls

inhibition at 50 µM (Sirt1; [2]): 27%
IC50 (Sirt2): 24.6 ± 2.8 µM
IC50 (Sirt3): 41.7 ± 2 µM
SMILES: Cc1cc(O)cc(C)c1/C=C/c1cncc(C(N)=O)c1 [Compound 2a, reference compound]

inhibition at 10 µM (Sirt1; [2]): 71%
IC50 (Sirt2): 8.7 ± 0.2 µM
inhibition at 50 µM (Sirt3): 89%
relative percentage of (Z)-isomer in photostationary state [1]: 45%
SMILES: NC(=O)c1cncc(/C=C/c2ccccc2)c1 [Compound 2b, (E)-5-Styrylnicotinamide]

inhibition at 100 µM (Sirt1; @ 100 µM, percent inhibition relative to controls): 51%
IC50 (Sirt2): ~7 µM and 6.6 µM
IC50 (Sirt3): 7.5 ± 0.9 µM
SMILES: NC(=O)c1cncc(/C=C/c2ccc(F)cc2)c1 [Compound 2c, (E)-5-(4-Fluorostyryl)nicotinamide]

inhibition at 10 µM (Sirt1; [2]): 51%
inhibition at 10 µM (Sirt2): 64%
inhibition at 50 µM (Sirt3): 90%
SMILES: COc1ccc(/C=C/c2cncc(C(N)=O)c2)cc1 [Compound 2d]

inhibition at 50 µM (Sirt1; [2]): 61%
inhibition at 50 µM (Sirt2): 69%
inhibition at 50 µM (Sirt3): 60%
SMILES: NC(=O)c1cncc(/C=C/c2cccc(OCc3ccccc3)c2)c1 [Compound 2e]

inhibition at 10 µM (Sirt1; [2]): 26%
inhibition at 10 µM (Sirt2): 21%
inhibition at 50 µM (Sirt3): 79%
relative percentage of (Z)-isomer in photostationary state [1]: 57%
SMILES: COc1cc(C)c(/C=C/c2cncc(C(N)=O)c2)c(C)c1 [Compound 2f]

inhibition at 50 µM (Sirt1; [2]): 52%
inhibition at 50 µM (Sirt2): 62%
inhibition at 50 µM (Sirt3): 87%
SMILES: NC(=O)c1cncc(/C=C/c2ccc3c(c2)OCO3)c1 [Compound 2g]

Sirt1 inhibition (Sirt1): n.i.
inhibition at 10 µM (Sirt2): 9%
Sirt3 inhibition (Sirt3): n.i.
SMILES: NC(=O)c1cncc(/C=C/c2cccc(NC(=O)c3ccc(OCc4ccccc4)cc3)c2)c1 [Compound 2h]

Sirt1 inhibition (Sirt1): complete loss of activity and n.i.
inhibition at 10 µM (Sirt2): 48%
inhibition at 10 µM (Sirt3): 38%
SMILES: NC(=O)c1cncc(C2=Cc3ccccc3CC2)c1 [Compound 4a]

Sirt1 inhibition (Sirt1): complete loss of activity and n.i.
inhibition at 10 µM (Sirt2): 45%
inhibition at 10 µM (Sirt3): 38%
SMILES: NC(=O)c1cncc(-c2ccc3ccccc3c2)c1 [Compound 4b]

melting point: 276.8 °C
Sirt1 inhibition (Sirt1): complete inactivity and n.i.
Sirt2 inhibition (Sirt2; n.i. = no inhibition detected, tested at 100 µM, 50 µM and 10 µM): complete inactivity and n.i.
Sirt3 inhibition (Sirt3): complete inactivity and n.i.
SMILES: NC(=O)c1cnc2c(ccc3ccccc32)c1 [Compound 8a]

Source: PMC6774072, “Azologization and repurposing of a hetero-stilbene-based kinase inhibitor: towards the design of photoswitchable sirtuin inhibitors” (Beilstein Journal of Organic Chemistry, 2019)
